According to publication PMC10485906, “Development of a Dihydroquinoline–Pyrazoline GluN2C/2D-Selective Negative Allosteric Modulator of the N-Methyl-D-aspartate Receptor” (ACS Chemical Neuroscience, 2023):

Assays:
Assay type in all cases: in vitro ADME
[1] = Plasma stability, human; conditions: both sexes; for half-life at 3 μM: human plasma, incubation up to 120 min, read-out: plasma stability T1/2, human; for remaining at 120 min, 3 µM: plasma, over the assay time course
Description: (§1) Human plasma (lithium heparin (LiHep) mixed, gender pooled, 0.2 μm filtered) and mouse plasma (BALB/C, LiHep mixed, male pooled, 0.2 μm filtered) were purchased from BioIVT. Procaine (Sigma-Aldrich) served as a positive control for both human and mouse plasma experiments. Test compounds and positive controls were initially dissolved in DMSO to make 10 mM stock solutions. The solutions of test and control compounds were then further diluted in 70% MeOH/H2O or 100% MeCN to 500 μM. Next, the human or mouse plasma (994 μL) was aliquoted into 1.5 mL Eppendorf tubes with duplicates (reactions A and B) being prepared for each compound. The plasma was then incubated at 37 °C for 10 min. Afterward, the reaction was initiated by the addition of the test compound (6 μL of 500 μM solution) and further incubated at 37 °C for the designated time course of the study. This procedure provided duplicate experiments with a final volume of 1000 μL (<0.6% organic solvent content) and a final test compound concentration of 3 μM. Aliquots (100 μL) were removed from each reaction mixture at 0, 15, 30, 60, and 120 min time intervals and quenched with 150 μL of cold ISTD solution (2 μM 7-ethoxy-d5-coumarin in MeOH or MeCN). Quenched aliquots were then centrifuged at 15,000 g for 30–45 min, and the resulting supernatants (∼70 μL) were withdrawn and placed in LC-MS vials to be analyzed by LC-MS/MS (Agilent G6460C QQQ MS coupled with an Infinity II 1260 HPLC). Each test compound was run in tandem with positive and negative control experiments for quality assurance. The positive control reaction was conducted at a final volume of 1000 μL for a single run at each time point. Finally, the negative control experiment was conducted with test compounds in DPBS (143 μL) and analyzed at the 120 min time point.
(§2) For both LM and plasma assays, each data point was analyzed in triplicate using between blank washes to avoid carry over and to equilibrate the column for the subsequent runs. Averages of these triplicates for individual compounds at each time point were then normalized to the data at 0 min, representing 100% of the test compound remaining or 0% metabolism. Half-lives (t1/2) were calculated by plotting ln of % test compound remaining versus time and performing linear regression to determine slope. Slope = −k and t1/2 = 0.693/k for first-order kinetics (see Figures S5 and S6 for a representative example).

[2] = Plasma stability, mouse; conditions: for half-life at 3 μM / remaining at 120 min, 3 µM: male, BALB/C, mouse; for half-life at 3 μM: mouse plasma, incubation up to 120 min, read-out: plasma stability T1/2, mouse; for remaining at 120 min, 3 µM: plasma, over the assay time course
Description: as §1, §2

[3] = Liver microsome stability, mouse; conditions: CD-1, mouse; for half-life at 3 μM / remaining at 0.5 h, 3 µM: liver microsomes; for half-life at 3 μM: incubation up to 30 min, read-out: liver microsome stability T1/2, mouse; for remaining at 0.5 h, 3 µM: over the assay time course (30 min), read-out: % remaining, mouse LMs; for microsomal CLint at 3 μM: mouse liver microsomes
Description: Human liver microsomes (HLMs, 20 mg/mL) and CD-1 mouse liver microsomes (MLMs, 20 mg/mL) were purchased from Xenotech. NADPH was purchased from Sigma-Aldrich and prepared in 10 mM stock solutions of distilled H2O (Invitrogen UltraPure). Verapamil and diphenhydramine were both purchased from Sigma-Aldrich and served as positive controls for HLM and MLM stability, respectively. Test compounds and positive controls were initially dissolved in DMSO to make 10 mM stock solutions. Sample solutions were then further diluted in 70% MeOH/H2O or 100% MeCN to 500 μM. Next, the reactions were prepared by mixing human or mouse liver microsomes (55 μL) with potassium phosphate buffer (100 mM, […]) in 1.5 mL Eppendorf tubes. The test compounds (6.6 μL of 500 μM solution) were subsequently added to the suspensions, and the reaction mixtures were incubated at 37 °C for 5 min. Afterward, the liver microsome reactions were initiated with 110 μL of 10 mM NADPH and further incubated at 37 °C for the designated time course of the study. This procedure provided experiments with a final volume of 1100 μL (<0.6% organic solvent content), a concentration for HLMs and MLMs of 1 mg/mL, and a final test compound concentration of 3 μM. Aliquots (100 μL) were removed from each reaction mixture in duplicate at 0, 5, 10, 15, and 30 min time intervals and quenched with 100 μL of cold internal standard solution (ISTD, 2 μM 7-ethoxy-d5-coumarin in MeOH or MeCN). Quenched aliquots were then centrifuged at 12 500 g for 5–10 min, and the resulting supernatants were withdrawn and placed in LC-MS vials to be analyzed by LC-MS/MS (Agilent G6460C QQQ MS coupled with an Infinity II 1260 HPLC). Each test compound was run in tandem with positive and negative control experiments for quality assurance. Positive control reactions were conducted at a final volume of 550 μL for a single run at each time point. Lastly, the negative control experiment was conducted with test compounds and liver microsomes in the absence of NADPH (150 μL) and analyzed at the 30 min time point.
as §2

| SMILES | half-life at 3 μM [1] [min] | remaining at 120 min, 3 µM [1] [%] | half-life at 3 μM [2] [min] | remaining at 120 min, 3 µM [2] [%] | half-life at 3 μM [3] [min] | remaining at 0.5 h, 3 µM [3] [%] | microsomal CLint at 3 μM [3] [µL/min/mg] | metabolized in mouse plasma (% of prodrug) ([2]; after 2 h) [%] |
| --- | --- | --- | --- | --- | --- | --- | --- | --- |
| O=C(O)CCC(=O)N1N=C(c2c(-c3ccc(Cl)cc3)c3ccccc3[nH]c2=O)CC1c1ccc(Cl)cc1 (centres unmarked) [2a] | > 120 | > 95 | > 120 | > 95 | > 30 | > 95 | < 23 | – |
| O=C(O)CC(F)(F)C(=O)N1N=C(c2c(-c3ccc(Cl)cc3)c3ccccc3[nH]c2=O)CC1c1ccc(Cl)cc1 (centres unmarked) [2i] | > 120 | > 95 | > 120 | > 95 | > 30 | > 95 | < 23 | – |
| NC(=O)CC(F)(F)C(=O)N1N=C(c2c(-c3ccc(Cl)cc3)c3ccccc3[nH]c2=O)CC1c1ccc(Cl)cc1 (centres unmarked) [2k] | > 120 | – | > 120 | – | > 30 | > 90 | < 23 | 42 |
| CCOC(=O)CC(F)(F)C(=O)N1N=C(c2c(-c3ccc(Cl)cc3)c3ccccc3[nH]c2=O)CC1c1ccc(Cl)cc1 (centres unmarked) [2l] | > 120 | – | 4.2 | – | 2.6 | – | 267 | – |
| CC(C)OC(=O)CC(F)(F)C(=O)N1N=C(c2c(-c3ccc(Cl)cc3)c3ccccc3[nH]c2=O)CC1c1ccc(Cl)cc1 (centres unmarked) [2m] | > 120 | – | 37 | – | 2.9 | – | 239 | – |
| O=C(CC(F)(F)C(=O)N1N=C(c2c(-c3ccc(Cl)cc3)c3ccccc3[nH]c2=O)CC1c1ccc(Cl)cc1)OCC1CC1 (centres unmarked) [2n] | > 120 | – | 1.3 | – | 1.8 | – | 385 | – |
| CC(C)(C)COC(=O)CC(F)(F)C(=O)N1N=C(c2c(-c3ccc(Cl)cc3)c3ccccc3[nH]c2=O)CC1c1ccc(Cl)cc1 (centres unmarked) [2o] | > 120 | – | 4 | – | 4 | – | 173 | – |
| O=C(CC(F)(F)C(=O)N1N=C(c2c(-c3ccc(Cl)cc3)c3ccccc3[nH]c2=O)CC1c1ccc(Cl)cc1)OCc1ccccc1 (centres unmarked) [2p] | > 120 | – | 1.4 | – | 7.2 | – | 96 | – |
| CNC(=O)CC(F)(F)C(=O)N1N=C(c2c(-c3ccc(Cl)cc3)c3ccccc3[nH]c2=O)CC1c1ccc(Cl)cc1 (centres unmarked) [2q] | > 120 | – | > 120 | – | ≤ 7 | – | 178 | – |
| CN(C)C(=O)CC(F)(F)C(=O)N1N=C(c2c(-c3ccc(Cl)cc3)c3ccccc3[nH]c2=O)CC1c1ccc(Cl)cc1 (centres unmarked) [2r] | > 120 | – | > 120 | – | – | – | 231 | – |
